Measured values: patent US8791132B2, “Compounds and methods for treatment of hypertension” (Medivation Technologies, Inc., priority 2011, dated 2014)
Like-named read-outs stand apart in the source and are kept apart here.

What was measured:
[1] = system: SH-SY5Y cells over-expressing α-syn; test: Cell viability (MTS reduction) in SH-SY5Y cells over-expressing α-synuclein; format: cell-based; conditions: Homo sapiens, 336 h, α-syn over-expression (−dox), compounds at 10 nM, +dox control = 100, 14 days, read-out: Relative cell viability protection
Experimental: Cell Culture. SH-SY5Y cells stably transfected with a doxycyline-inducible wild-type α-synuclein (α-syn) gene along with control SH-SY5Y cells over-expressing the β-galactosidase (β-gal) gene (a gift from L. Stefanis, Division of Basic Neurosciences, Biomedical Research Foundation of the Academy of Athens, Athens, Greece) are cultured as described by Vekrellis et al. (Vekrellis K, Xilouri M, Emmanouilidou E, Stefanis L. (2009). Inducible over-expression of α-syn in human neuronal cells leads to caspase-dependent non-apoptotic death. J Neurochem 109, 1348-1362). In accordance with this method, cells are cultured and maintained in RPMI 1640, 10% fetal bovine serum supplemented with 250 μg/mL G418 and 50 μg/mL Hygromycin B. Expression of α-syn is switched off in stock cultures with doxycycline (2 μg/mL). For experimental procedures, cells are plated at (4−8×10^4 cells/cm^2) and differentiated in absence of doxycycline and in the presence of 20 μM all-trans retinoic acid (RA) (Sigma, St Louis, Mo., USA).
Viability Assay: Cells are cultured in 96-well plates. After 24 h, cells are treated with RA and Compounds of Invention at 0.1 and 10 nM in the absence of doxycyline. Culture medium with RA and drugs is fully replaced after 7 days. Cell viability is measured by the release of lactate dehydrogenase (LDH) from necrotic cells into the culture medium and by measuring the capacity of cells to metabolize MTS tetrazolium (MTS) after 14 days in culture. LDH leakage is assessed according to the Cytotoxicity Detection KitPlus (Roche, Mannheim, Germany) and MTS reduction is assessed by the CellTiter 96® AQueous One Solution Cell Proliferation assay (Promega Corporation, Madison, Wis., USA).
Assay results for the experiments with α-syn over-expression are presented as the MTS reduction capacity (cell viability) of control cells (+dox), cells over-expressing α-syn (−dox), and cells over-expressing α-syn incubated with Compounds of the Invention at 0.1 nM (FIG. 18A) or 10 nM (FIG. 18B).

[2] = system: conscious New Zealand White rabbits; test: Blood pressure in conscious rabbits; format: in vivo, rabbit; conditions: i.v. cumulative dose-response study, Compound 3b maximum at 10 mg/kg
Experimental: Methods: Four adult New Zealand White rabbits of both sexes were chosen for these studies. […] To unveil peripheral effects of Compound 3b, two sets of acute studies were conducted in rabbits. […] A single intravenous bolus dose at 3 mg/kg was given and a time-course study was conducted in the second set of studies. Systolic, […], mean and […] blood pressures were recorded in both the studies. […] In a separate set of studies, Clonidine (positive control) was tested where all experimental procedures including dose-regimen were identical to that of the studies with […].

SH-SY5Y cells = test: Cell viability (MTS reduction) in 4-Br-A23187-treated SH-SY5Y cells; format: cell-based; conditions: MTS reduction capacity; FCCP at 10 μM for 30 min as a control
Experimental: After 24 h, cells were depleted from FBS and kept in culture for 24 h before the experiment. Cells were then treated with 4-Br-A23187 (2 μM), hydrogen peroxide (300 μM) or the mitochondrial toxin rotenone (25 μM) in the presence of vehicle or Compound of the Invention for 24 h. Cell death was determined by measurements of LDH release according to the Cytotoxicity Detection KitPlus (Roche, Mannheim, Germany). Cell viability was determined by measuring the capacity of cells to metabolize MTS tetrazolium (MTS) according to the Cytotoxicity Detection KitPlus (Roche, Mannheim, Germany) and MTS reduction is assessed by the CellTiter 96® AQueous One Solution Cell Proliferation assay (Promega Corporation, Madison, Wis., USA). Compounds were screened at 10 nM, using DMSO as vehicle. Assay results for the experiments with hydrogen peroxide are presented as the LDH release (cell death) of untreated cells (control), hydrogen peroxide-treated cells (vehicle), and co-incubation of hydrogen peroxide with Compounds of the Invention treated cells normalized to the vehicle (FIG. 17A). This assay assesses the ability of the test compounds to protect against cell death that is mediated by mitochondrial dysfunction. In the assay, the calcium ionophore 4-Br-A23187 is used to challenge the cells, causing calcium levels to rise in mitochondria, which leads to depolarization and cell death. Test compounds are assessed for their ability to prevent cell death in response to challenge with 4-Br-A23187.

[3] = target: T1, human recombinant adrenergic α2A receptor (Homo sapiens, UniProt P08913); test: Radioligand binding, adrenergic α2A ([3H]MK-912)
T1 construct: expressed in transfected cells; host or cells: insect Sf9 cells
T1 sequence (P08913 1-465): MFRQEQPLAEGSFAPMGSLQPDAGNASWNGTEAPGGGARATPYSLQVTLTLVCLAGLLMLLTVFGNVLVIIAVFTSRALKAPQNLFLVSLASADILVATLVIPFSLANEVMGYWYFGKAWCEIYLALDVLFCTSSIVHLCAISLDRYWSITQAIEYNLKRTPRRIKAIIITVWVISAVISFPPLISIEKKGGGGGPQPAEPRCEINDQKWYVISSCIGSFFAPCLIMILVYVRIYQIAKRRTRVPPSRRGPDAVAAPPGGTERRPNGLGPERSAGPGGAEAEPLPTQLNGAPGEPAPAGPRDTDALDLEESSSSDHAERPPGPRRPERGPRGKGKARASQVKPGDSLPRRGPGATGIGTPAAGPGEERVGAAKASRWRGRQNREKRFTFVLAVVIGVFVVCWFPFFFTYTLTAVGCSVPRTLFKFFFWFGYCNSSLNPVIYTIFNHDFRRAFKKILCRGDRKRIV
Method in brief: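 Receptor expressed in Sf9 cells, in 50 mM Tris-HCl pH 7.4, 12.5 mM MgCl2, 2 mM EDTA; compounds incubated with 1 nM [3H]MK-912 for 60 min at 25 °C.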

[4] = target: T2, rat adrenergic α1B receptor (Rattus norvegicus, UniProt P15823); test: Radioligand binding, adrenergic α1B ([3H]Prazosin)
T2 construct: rat adrenergic α1B receptor obtained from Wistar Rat liver; from tissue; host or cells: Wistar rat liver
T2 sequence (P15823 1-515): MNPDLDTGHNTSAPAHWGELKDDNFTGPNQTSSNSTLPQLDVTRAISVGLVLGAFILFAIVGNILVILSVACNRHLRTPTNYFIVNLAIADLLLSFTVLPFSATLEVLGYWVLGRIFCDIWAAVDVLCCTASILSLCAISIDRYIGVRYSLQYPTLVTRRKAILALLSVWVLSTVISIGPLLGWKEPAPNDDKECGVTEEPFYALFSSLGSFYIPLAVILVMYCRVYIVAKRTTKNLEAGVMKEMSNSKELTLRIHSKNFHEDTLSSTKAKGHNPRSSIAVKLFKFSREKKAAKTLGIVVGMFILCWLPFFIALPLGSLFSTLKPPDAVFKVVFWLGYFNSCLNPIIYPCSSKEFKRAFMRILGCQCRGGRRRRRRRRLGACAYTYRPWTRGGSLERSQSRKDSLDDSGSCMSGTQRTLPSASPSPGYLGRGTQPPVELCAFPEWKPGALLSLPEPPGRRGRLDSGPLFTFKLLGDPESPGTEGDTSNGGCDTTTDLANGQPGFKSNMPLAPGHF
Method in brief: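 Specific binding, taken as total minus that remaining with 10 μM phentolamine, is measured after filtration and counting. Rat liver receptor preparation and 0.25 nM [3H]prazosin are incubated with compound in 50 mM Tris-HCl (pH 7.4, 0.5 mM EDTA) at 25° C for 60 min. Activity is reported as percent inhibition.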

[5] = target: T3, human recombinant adrenergic α2B receptor (Homo sapiens, UniProt P18089); test: Radioligand binding, adrenergic α2B ([3H]Rauwolscine)
T3 construct: expressed in transfected cells; host or cells: CHO-K1
T3 sequence (P18089 1-450): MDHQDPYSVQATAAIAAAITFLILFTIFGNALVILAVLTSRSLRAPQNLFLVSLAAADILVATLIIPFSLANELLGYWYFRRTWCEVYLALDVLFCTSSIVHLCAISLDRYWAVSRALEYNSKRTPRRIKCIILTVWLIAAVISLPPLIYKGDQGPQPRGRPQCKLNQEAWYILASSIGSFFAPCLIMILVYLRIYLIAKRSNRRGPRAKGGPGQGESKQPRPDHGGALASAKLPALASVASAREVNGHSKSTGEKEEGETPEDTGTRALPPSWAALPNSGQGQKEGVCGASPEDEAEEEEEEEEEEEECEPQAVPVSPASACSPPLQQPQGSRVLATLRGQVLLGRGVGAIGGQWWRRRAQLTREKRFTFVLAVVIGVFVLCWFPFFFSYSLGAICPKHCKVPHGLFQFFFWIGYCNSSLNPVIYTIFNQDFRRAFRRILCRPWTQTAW
Method in brief: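 Readout: percent inhibition of specific [3H]Rauwolscine binding, measured by filtration and counting. Conditions: CHO-K1 cell-expressed receptor, 2.5 nM radioligand, 60 min, 25° C, Tris-HCl pH 7.4 buffer with MgCl2, EDTA, BSA. Non-specific binding: 10 μM Prazosin.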

[6] = target: T4, human recombinant adrenergic α1D receptor (Homo sapiens, UniProt P25100); test: Radioligand binding, adrenergic α1D ([3H]Prazosin)
T4 construct: expressed in transfected cells; host or cells: HEK-293
T4 sequence (P25100 1-572): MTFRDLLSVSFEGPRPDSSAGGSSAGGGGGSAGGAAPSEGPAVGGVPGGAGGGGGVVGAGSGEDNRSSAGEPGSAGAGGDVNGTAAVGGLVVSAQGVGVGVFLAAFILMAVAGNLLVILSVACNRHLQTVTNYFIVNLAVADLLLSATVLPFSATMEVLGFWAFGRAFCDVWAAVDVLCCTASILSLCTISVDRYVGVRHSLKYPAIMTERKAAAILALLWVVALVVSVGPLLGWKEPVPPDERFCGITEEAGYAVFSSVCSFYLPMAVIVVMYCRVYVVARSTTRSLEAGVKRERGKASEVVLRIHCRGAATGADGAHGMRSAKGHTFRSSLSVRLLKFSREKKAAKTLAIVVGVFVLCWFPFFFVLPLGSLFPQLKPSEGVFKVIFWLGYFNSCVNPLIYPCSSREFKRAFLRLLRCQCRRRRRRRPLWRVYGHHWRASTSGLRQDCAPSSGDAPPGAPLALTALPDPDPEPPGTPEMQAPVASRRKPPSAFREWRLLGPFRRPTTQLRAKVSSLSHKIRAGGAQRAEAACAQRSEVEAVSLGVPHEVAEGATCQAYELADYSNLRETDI
Experimental: Compounds were incubated with 0.6 nM [3H]Prazosin for 60 min at 25° C. Non-specific binding was estimated in the presence of 10 μM phentolamine. Receptor proteins were filtered and washed, the filters were then counted to determine [3H]Prazosin specifically bound. […] Biochemical assay results are presented as the percent inhibition of specific binding in Table B1.

[7] = 0.1 μM compound, read-out: Percentage inhibition of ligand binding, Adrenergic α2A
[8] = 0.1 μM compound, read-out: Percentage inhibition of ligand binding, Adrenergic α1B
[9] = 0.1 μM compound, read-out: Percentage inhibition of ligand binding, Adrenergic α2B
[10] = 0.1 μM compound, read-out: Percentage inhibition of ligand binding, Adrenergic α1D

inhibition at 0.1 µM [3, 7] [%] | inhibition at 0.1 µM [4, 8] [%] | inhibition at 0.1 µM [5, 9] [%] | inhibition at 0.1 µM [6, 10] [%] | Compound | viability at 0.01 µM [1] [%] | other results
 |  |  |  | Cc1ccc2c(c1)c1c(n2CC(O)c2ccncc2)CCN(C)C1 (centres unmarked) [Cpd3b] | 78.3 | 
 |  |  |  | Cc1ccc2c(c1)c1c(n2CC(O)c2ccncc2)CCNC1 (centres unmarked) [Cpd39a] | 80.8 | 
 |  |  |  | Clc1cccc(Cl)c1N=C1NCCN1 [Clonidine, clonidine, reference compound] |  | maximum arterial blood pressure drop [2]: −6 mmHg
 |  |  |  | N#CC(C#N)=NNc1ccc(OC(F)(F)F)cc1 [FCCP, p-trifluoromethoxyphenylhydrazone, reference compound] |  | Relative cell viability protection (SH-SY5Y cells): 0.1035
 |  |  |  | Cc1ccc2c(c1)c1c(n2CC(C)(O)c2cccnc2)CCN(C)C1 (centres unmarked) [Cpd5b] | 85.3 | 
 |  |  |  | CN1CCc2c(c3cc(Cl)ccc3n2CC(O)c2ccncc2)C1 (centres unmarked) [Cpd4a] | 77.5 | 
55 | 91 | 82 | 72 | Cc1ccc2c(c1)c1c(n2C#Cc2ccc(S(N)(=O)=O)s2)CCN(C)C1 [compound 334, 5-(2,8-dimethyl-1,2,3,4-tetrahydro-pyrido[4,3-b]indol-5-ylethynyl)-thiophene-2-sulfonic acid amide] |  | 
86 | 82 | 101 | 68 | COc1ccc(/C(C)=C/n2c3c(c4cc(Cl)ccc42)CCN(C)CC3)cc1 [compound 246] |  | 
 |  |  |  | C/C(=C\n1c2c(c3cc(C)ccc31)CN(C)CC2)c1cccc(F)c1 [compound 237] |  | inhibition at 0.1 µM ([3]; read-out: Percentage inhibition of ligand binding, Adrenergic α2A (0.1 μM), compound at 0.1 μM, [3H]MK-912, repeat datapoints each shown): 98%; inhibition at 0.1 µM ([4]; read-out: Percentage inhibition of ligand binding, Adrenergic α1B (0.1 μM), compound at 0.1 μM, [3H]Prazosin, repeat datapoints each shown): 80%; inhibition at 0.1 µM ([5]; read-out: Percentage inhibition of ligand binding, Adrenergic α2B (0.1 μM), compound at 0.1 μM, [3H]Rauwolscine, repeat datapoints each shown): 99%; inhibition at 0.1 µM ([6]; read-out: Percentage inhibition of ligand binding, Adrenergic α1D (0.1 μM), compound at 0.1 μM, [3H]Prazosin, repeat datapoints each shown): 52%
56 | 71 | 93 | 50 | C/C(=C\n1c2c(c3cc(C)cc(C)c31)CN(C)CC2)c1ccncc1 [compound 312] |  | 
45 | 13 | 48 | 23 | Cc1ccc2c(c1)c1c(n2C2=C(c3ccc(C)nc3)CCC2)CCN(C)C1 [II-82, 2,8-dimethyl-5-(2-(6-methylpyridin-3-yl)cyclopent-1-enyl)-2,3,4,5-tetrahydro-1H-pyrido[4,3-b]indole] |  | inhibition at 0.03 µM ([5]; 0.03 μM compound, read-out: Percentage inhibition of ligand binding, Adrenergic α2B): 35%; Percentage inhibition of ligand binding, Adrenergic α2B ([5]; 0.1 μM compound, 0.1 µM): 53%; Ki ([5]; read-out: Ki α2B): 26.8 nM
